B1: dopamine transporter (DAT) (Homo sapiens) (protein)
chain: MSKSKCSVGLMSSVVAPAKEPNAVGPKEVELILVKEQNGVQLTSSTLTNPRQSPVEAQDRETWGKKIDFLLSVIGFAVDLANVWRFPYLCYKNGGGAFLVPYLLFMVIAGMPLFYMELALGQFNREGAAGVWKICPILKGVGFTVILISLYVGFFYNVIIAWALHYLFSSFTTELPWIHCNNSWNSPNCSDAHPGDSSGDSSGLNDTFGTTPAAEYFERGVLHLHQSHGIDDLGPPRWQLTACLVLVIVLLYFSLWKGVKTSGKVVWITATMPYVVLTALLLRGVTLPGAIDGIRAYLSVDFYRLCEASVWIDAATQVCFSLGVGFGVLIAFSSYNKFTNNCYRDAIVTTSINSLTSFSSGFVVFSFLGYMAQKHSVPIGDVAKDGPGLIFIIYPEAIATLPLSSAWAVVFFIMLLTLGIDSAMGGMESVITGLIDEFQLLHRHRELFTLFIVLATFLLSLFCVTNGGIYVFTLLDHFAAGTSILFGVLIEAIGVAWFYGVGQFSDDIQQMTGQRPSLYWRLCWKLVSPCFLLFVVVVSIVTFRPPHYGAYIFPDWANALGWVIATSSMAMVPIYAAYKFCSLPGSFREKLAYAIAPEKDRELVDRGEVRQFTLRHWLKV

Key:
[1] = target: T1, norepinephrine transporter (NET) (Homo sapiens, UniProt P23975); test: inhibition of mIBG internalization in HEK-NET cells, LC-MS/MS quantification; type: cell-based
T1 construct: gene SLC6A2; human NET expressed in transfected HEK293 cells

[2] = substrate: N=C(N)NCc1cccc(I)c1; test: cells, lysate or membranes

T1 sequence (P23975 whole entry): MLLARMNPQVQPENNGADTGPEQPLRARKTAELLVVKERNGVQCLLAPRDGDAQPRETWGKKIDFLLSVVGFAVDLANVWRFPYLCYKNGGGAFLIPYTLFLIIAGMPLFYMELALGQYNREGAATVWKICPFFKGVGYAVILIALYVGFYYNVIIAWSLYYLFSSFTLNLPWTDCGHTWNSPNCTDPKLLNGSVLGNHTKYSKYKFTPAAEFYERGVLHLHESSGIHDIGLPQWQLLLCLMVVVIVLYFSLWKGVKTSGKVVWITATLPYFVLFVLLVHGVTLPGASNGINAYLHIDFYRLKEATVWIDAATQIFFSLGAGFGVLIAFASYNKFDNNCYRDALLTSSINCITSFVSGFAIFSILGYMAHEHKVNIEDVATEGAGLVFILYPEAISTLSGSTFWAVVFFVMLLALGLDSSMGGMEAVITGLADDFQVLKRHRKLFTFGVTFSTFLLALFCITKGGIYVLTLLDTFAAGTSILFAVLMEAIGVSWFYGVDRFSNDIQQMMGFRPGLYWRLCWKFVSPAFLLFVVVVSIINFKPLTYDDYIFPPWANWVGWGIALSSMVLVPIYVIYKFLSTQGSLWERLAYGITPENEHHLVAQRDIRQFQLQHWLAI

| Molecule | IC50 [1] | Km [2] |
| --- | --- | --- |
| c1ccc(CCCN2CCN(CCOC(c3ccccc3)c3ccccc3)CC2)cc1 [GBR12935] | 3.61 µM | – |
| B1 | – | 2807 nM |

From PMC10485979, “CUDC-907, a dual PI3K/histone deacetylase inhibitor, increases meta-iodobenzylguanidine uptake (^123/131I-mIBG) in vitro and in vivo: a promising candidate for advancing theranostics in neuroendocrine tumors” (Journal of Translational Medicine, 2023)
